{
  "source": "patent US12599597B2",
  "about": "“Substituted N-benzhydrylacetamide inhibitors of jumanji domain histone demethylases for the treatment of cancer” (University of Kentucky Research Foundation, priority 2020, dated 2026)",
  "key": {"[1]": {"system": "Wnt signaling", "assay": "TOPFlash (Wnt) reporter assay in stable HEK293T cell line", "type": "cell-based", "settings": "for Percent inhibition at 1 μM: Table 3, Wnt reporter assay at 1 μM", "excerpt": "Wnt signaling is a key target for multiple human cancers, including but not limited to colon cancer, liver cancer, and lung cancer. To identify novel Wnt regulators by high throughput screening, a stable HEK293T cell line containing the TOPFlash reporter was established. Since β-catenin is often activated by mutations in the Wnt pathway, it is important to inhibit Wnt signaling downstream of β-catenin activity. Therefore, the screen was specifically designed to identify Wnt inhibitors that target events downstream of β-catenin. The Wnt signaling was activated by treating cells with lithium chloride to inhibit GSK3 and to stabilize β-catenin, mimicking the constitutively active Wnt signaling in cancer cells. Through this screen, a family of novel Wnt inhibitors that inhibited Wnt signaling at a 0.5-10 μM concentrations (Table 1) was identified.\nAfter 6 h, the cells were treated with 25 mM LiCl to activate Wnt signaling. The inhibition ratio of each compound was determined (Table 1).\nFor the SAR studies, 58B1 (VMS-7-133) was re-synthesized. Additionally, SD70, a commercial KDM4 inhibitor, was both purchased and re-synthesized (VMS-7-175). […] VMS-7-195 is a biotinylated analog of 58B1. […] Specific KDM inhibitors may be used to target specific KDMs, such as KDM3A, which is highly expressed in many human cancers.\nIdentification of a CBA-1 as a novel Wnt inhibitor. The present inventors routinely use TOPFlash reporter assay for Wnt inhibitor screening. To mimic the constitutively active Wnt signaling found in CRC cells, Wnt signaling was activated by inhibiting GSK3 and stabilizing β-catenin. From screening in house small-molecule libraries, CBA-1 (FIG. 4) was identified that inhibited Wnt signaling in TOPFlash reporter assay. To validate the screening results, CBA-1 was tested in CRC cells."}, "[2]": {"biological_target": "UTX (KDM6A) (Homo sapiens, UniProt O15550)", "sequence (O15550 whole entry)": "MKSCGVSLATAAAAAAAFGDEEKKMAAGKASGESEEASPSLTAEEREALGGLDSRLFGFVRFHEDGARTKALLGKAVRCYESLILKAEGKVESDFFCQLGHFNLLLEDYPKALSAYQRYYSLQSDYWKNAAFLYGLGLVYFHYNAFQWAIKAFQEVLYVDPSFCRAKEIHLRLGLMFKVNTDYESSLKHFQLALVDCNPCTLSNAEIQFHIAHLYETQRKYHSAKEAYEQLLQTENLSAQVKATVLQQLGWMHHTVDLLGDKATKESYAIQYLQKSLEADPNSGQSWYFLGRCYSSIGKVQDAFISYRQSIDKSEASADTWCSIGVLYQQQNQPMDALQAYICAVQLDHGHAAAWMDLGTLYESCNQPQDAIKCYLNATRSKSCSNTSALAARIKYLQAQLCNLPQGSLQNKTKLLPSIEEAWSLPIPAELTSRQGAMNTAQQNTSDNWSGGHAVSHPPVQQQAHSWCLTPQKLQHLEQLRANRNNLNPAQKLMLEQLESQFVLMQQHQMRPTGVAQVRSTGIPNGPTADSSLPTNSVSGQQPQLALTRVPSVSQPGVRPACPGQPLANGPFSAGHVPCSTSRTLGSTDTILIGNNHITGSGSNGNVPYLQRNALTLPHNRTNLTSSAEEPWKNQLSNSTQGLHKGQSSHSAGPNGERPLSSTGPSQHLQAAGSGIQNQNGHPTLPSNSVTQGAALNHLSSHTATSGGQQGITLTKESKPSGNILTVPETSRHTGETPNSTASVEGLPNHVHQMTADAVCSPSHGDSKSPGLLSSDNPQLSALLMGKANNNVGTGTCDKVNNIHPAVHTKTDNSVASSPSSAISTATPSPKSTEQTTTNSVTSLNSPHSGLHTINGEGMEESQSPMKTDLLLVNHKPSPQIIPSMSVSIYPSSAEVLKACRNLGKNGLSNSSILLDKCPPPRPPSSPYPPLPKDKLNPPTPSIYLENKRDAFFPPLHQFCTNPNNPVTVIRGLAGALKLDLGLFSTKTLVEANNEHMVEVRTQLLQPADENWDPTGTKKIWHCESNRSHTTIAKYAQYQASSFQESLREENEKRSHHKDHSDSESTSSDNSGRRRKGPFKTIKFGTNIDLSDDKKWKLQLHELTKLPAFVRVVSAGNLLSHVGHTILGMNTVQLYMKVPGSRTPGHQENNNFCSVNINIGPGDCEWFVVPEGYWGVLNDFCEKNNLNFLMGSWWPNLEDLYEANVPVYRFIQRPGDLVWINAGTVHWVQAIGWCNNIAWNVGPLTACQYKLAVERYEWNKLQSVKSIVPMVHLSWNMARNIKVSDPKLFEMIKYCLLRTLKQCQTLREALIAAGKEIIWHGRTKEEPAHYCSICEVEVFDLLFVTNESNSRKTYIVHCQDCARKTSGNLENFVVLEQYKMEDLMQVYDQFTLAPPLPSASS", "assay": "Histone demethylase assay, purified enzyme panel", "type": "biochemical", "settings": "Reference inhibitor", "excerpt": "(§1) Histone Demethylase Assay\n(§2) To further examine the effects of 58B1 on histone demethylase, we screened a panel of purified histone demethylases was screened."}, "[3]": {"biological_target": "Jarid1B (KDM5B) (Homo sapiens, UniProt Q9UGL1)", "sequence (Q9UGL1 whole entry)": "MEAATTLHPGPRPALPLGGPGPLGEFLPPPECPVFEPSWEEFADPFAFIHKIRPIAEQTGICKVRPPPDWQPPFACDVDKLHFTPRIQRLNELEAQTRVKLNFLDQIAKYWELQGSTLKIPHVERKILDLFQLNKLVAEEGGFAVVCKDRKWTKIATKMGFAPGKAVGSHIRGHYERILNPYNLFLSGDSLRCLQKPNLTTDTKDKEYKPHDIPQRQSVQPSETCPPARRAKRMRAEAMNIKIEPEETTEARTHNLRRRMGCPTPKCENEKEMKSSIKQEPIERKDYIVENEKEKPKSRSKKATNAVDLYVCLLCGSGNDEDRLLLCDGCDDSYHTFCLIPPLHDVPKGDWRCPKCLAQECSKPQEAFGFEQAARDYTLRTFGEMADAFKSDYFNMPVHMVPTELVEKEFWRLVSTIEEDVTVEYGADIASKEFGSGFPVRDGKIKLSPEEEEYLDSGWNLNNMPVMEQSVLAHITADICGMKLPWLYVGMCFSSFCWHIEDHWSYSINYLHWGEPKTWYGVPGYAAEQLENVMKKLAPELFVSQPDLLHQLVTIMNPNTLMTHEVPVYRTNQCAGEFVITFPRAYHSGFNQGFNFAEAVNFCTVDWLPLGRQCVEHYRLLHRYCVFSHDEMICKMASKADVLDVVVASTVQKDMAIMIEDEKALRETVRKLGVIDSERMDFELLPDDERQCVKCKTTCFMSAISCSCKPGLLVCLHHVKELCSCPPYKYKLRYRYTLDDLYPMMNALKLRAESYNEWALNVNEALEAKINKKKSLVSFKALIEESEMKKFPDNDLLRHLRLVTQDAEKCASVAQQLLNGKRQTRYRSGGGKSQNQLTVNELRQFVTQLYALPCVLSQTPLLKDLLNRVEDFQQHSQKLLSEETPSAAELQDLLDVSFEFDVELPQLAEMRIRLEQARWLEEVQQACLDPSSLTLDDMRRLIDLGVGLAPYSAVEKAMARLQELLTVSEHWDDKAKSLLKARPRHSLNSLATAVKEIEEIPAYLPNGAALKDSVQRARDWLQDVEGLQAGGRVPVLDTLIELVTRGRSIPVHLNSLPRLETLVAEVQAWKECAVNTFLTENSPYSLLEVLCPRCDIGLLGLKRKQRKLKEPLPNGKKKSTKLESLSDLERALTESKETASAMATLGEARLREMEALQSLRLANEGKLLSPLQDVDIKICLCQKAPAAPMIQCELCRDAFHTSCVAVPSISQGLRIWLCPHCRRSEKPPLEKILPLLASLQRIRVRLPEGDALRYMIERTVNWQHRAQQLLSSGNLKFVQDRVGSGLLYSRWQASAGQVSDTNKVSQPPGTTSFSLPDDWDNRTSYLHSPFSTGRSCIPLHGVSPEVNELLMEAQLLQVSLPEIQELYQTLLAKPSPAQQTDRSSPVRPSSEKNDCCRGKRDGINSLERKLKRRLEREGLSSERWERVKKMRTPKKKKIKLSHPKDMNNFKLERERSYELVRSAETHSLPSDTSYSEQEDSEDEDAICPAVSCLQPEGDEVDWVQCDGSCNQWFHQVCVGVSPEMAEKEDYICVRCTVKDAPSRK", "assay": "Histone demethylase assay, purified enzyme panel", "type": "biochemical", "settings": "Reference inhibitor", "excerpt": "as §1, §2"}, "[4]": {"biological_target": "T1, JMJD1A (KDM3A) (Homo sapiens, UniProt Q9Y4C1)", "T1 sequence (Q9Y4C1 1-1321)": "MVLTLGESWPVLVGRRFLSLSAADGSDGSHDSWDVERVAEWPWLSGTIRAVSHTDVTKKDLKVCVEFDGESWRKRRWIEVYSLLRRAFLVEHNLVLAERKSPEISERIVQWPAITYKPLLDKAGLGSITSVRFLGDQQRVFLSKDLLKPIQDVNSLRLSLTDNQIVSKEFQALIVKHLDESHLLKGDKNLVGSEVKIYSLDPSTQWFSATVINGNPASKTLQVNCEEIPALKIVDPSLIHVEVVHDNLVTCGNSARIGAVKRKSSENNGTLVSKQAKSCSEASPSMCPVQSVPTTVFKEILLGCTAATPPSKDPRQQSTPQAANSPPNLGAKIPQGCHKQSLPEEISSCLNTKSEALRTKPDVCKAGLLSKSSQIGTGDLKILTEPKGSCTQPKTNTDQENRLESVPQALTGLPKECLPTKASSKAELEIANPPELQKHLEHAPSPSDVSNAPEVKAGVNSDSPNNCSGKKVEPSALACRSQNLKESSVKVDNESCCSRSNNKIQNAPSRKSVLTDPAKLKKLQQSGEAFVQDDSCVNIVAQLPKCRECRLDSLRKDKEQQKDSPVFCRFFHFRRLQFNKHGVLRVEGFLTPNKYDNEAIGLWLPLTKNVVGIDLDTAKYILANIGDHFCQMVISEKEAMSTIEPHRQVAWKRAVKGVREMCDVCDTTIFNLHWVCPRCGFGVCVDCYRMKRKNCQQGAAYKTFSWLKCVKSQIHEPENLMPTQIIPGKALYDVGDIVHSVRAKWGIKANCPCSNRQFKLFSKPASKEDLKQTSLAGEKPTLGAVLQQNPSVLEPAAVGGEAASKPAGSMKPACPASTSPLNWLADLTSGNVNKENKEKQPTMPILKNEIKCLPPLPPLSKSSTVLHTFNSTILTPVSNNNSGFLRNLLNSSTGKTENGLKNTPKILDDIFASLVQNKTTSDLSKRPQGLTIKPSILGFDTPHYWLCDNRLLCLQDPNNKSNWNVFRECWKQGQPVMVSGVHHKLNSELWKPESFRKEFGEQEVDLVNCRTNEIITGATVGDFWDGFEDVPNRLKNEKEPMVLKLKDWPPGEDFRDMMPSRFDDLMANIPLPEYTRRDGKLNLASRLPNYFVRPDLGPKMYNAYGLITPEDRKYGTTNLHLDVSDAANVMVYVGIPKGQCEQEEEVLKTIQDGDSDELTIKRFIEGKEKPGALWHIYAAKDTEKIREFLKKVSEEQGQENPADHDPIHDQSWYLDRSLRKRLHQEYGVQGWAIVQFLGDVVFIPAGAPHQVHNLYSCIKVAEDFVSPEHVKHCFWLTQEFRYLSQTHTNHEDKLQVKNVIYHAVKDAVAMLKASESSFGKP", "assay": "Histone demethylase assay / KDM3A enzymatic activity in vitro", "type": "biochemical", "settings": "for enzymatic activity of KDM3A: FIG. 12C", "excerpt": "as §1, §2\nIdentification of KDM3A as a target of CBA-1. KDM3A regulated H3K9Me^2 and underwent significant upregulation in CRC. To test if CBA-1 targeted KDM3A, a biotinylated analog CBA-B2 (FIG. 7A) was synthesized. […] Knocking-down KDM3A by shRNA inhibited cell proliferation (FIG. 7D) and Wnt target gene expression in LS174T CRC cells (FIG. 7E).\n(§3) Repurposing drugs as CBA-1 analogs and KDM3 inhibitors. CBA-1 is a specific and potent KDM3A inhibitor. As backup candidates, two approved drugs were identified as CBA-1 analogs and KDM3A inhibitors. Based on the docking study (FIGS. 8A-B), the N and OH groups (red color in FIG. 12A) are critical in binding the Mn^2+ in KDM3A. […] A virtual screening was performed and several antibiotics that have similar structures were identified. Two of these antibiotics, clioquinol and nitroxoline (FIG. 12B), indeed inhibited the enzymatic activities of KDM3 (FIGS. 12C and D). These two drugs were tested in LS174T tumor xenograft model in SCID mice. […] Nitroxoline has been used in Europe for over 50 years as an antibiotic. It has anticancer effects, but the mechanism remains unclear."}, "[5]": {"biological_target": "KDM3B (Homo sapiens, UniProt Q7LBC6)", "sequence (Q7LBC6 whole entry, the tested form may be a part)": "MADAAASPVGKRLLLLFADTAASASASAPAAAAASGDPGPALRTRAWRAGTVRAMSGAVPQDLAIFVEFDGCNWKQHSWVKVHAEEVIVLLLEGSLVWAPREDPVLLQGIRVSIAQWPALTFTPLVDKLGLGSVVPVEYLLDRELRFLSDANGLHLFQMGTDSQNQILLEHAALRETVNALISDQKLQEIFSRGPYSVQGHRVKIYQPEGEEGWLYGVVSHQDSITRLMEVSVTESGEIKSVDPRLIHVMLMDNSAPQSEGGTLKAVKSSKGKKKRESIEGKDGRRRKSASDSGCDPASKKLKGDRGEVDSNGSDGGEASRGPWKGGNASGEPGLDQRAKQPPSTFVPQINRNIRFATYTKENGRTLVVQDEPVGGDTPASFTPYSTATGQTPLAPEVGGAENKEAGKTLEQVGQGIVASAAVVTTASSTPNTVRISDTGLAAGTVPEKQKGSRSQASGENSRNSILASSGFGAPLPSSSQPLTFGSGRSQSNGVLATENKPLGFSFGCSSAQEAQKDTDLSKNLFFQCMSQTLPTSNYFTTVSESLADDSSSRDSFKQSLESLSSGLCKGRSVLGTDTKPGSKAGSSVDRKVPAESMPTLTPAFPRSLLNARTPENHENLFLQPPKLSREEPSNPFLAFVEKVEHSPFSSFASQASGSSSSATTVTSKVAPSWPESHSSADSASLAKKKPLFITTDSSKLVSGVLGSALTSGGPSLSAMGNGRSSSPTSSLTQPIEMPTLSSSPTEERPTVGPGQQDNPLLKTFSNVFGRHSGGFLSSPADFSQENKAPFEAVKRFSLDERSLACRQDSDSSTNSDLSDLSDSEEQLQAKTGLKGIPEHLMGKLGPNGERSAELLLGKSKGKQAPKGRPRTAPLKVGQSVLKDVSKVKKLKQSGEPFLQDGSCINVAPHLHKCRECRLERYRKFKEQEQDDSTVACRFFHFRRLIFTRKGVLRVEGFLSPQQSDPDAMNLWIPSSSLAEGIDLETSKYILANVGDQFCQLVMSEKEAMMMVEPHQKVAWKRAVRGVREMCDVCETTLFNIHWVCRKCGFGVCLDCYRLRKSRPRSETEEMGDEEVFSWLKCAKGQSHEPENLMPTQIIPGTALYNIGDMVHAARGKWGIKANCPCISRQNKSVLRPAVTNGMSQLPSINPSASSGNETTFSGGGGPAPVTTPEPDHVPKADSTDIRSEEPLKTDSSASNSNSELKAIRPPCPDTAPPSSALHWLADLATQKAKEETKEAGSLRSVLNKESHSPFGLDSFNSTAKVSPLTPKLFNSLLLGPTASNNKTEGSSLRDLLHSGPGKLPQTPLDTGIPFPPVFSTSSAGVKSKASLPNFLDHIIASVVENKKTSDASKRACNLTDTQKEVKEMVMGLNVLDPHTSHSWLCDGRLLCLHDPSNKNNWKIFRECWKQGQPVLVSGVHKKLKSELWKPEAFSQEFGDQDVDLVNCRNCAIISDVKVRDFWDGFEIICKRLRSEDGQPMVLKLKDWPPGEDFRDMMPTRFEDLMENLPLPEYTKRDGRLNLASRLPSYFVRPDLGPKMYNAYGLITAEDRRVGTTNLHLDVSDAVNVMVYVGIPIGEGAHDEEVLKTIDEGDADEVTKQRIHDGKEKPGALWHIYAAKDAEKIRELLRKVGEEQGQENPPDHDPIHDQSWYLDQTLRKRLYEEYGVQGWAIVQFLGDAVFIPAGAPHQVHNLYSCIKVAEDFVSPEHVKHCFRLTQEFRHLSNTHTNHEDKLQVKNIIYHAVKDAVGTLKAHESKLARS", "assay": "KDM3B enzymatic activity", "type": "biochemical", "settings": "FIG. 12D", "excerpt": "Other KDM3 members as CBA-1 targets. Inhibition of KDM3A by CBA-1 increased H3K9Me^2 and inhibited Wnt signaling; however, other KDM3 members may also regulate H3K9 methylation. For example, both KDM3B and KDM3C (JMJD1C) regulated Wnt signaling. Given the high similarity of their structures (FIG. 10A), particularly the JmjC domains, it is believed that CBA-1 would inhibit KDM3B and KDM3C as well. […] CBA-1 coordinated with Mn^2+ at a longer distance in KDM3B (3.9 Å) than the distance in KDM3A (2.8 Å) (FIGS. 8B and 10B). This could be one of the reasons that CBA-1 inhibited KDM3A better than KDM3B.\nas §3"}, "[6]": {"system": "LS174T CRC xenografts", "assay": "LS174T tumor xenograft model in SCID mice", "type": "in vivo", "settings": "50 mg/kg, p.o.", "experimental": "FIGS. 12A-E show images and graphs illustrating CBA-1 analogs from antibiotics. (A) Interaction of CBA-1 with Mn^2+. (B) Clioquinol (X=Cl; Y=I) and nitroxoline. (C-D) Inhibition of (C) KDM3A and (D) KDM3B enzymatic activities. (E) CBA-1 analogs (50 mg/kg, p.o.) inhibited LS174T CRC xenografts in SCID mice.\nas §3"}, "[7]": {"settings": "Homo sapiens, HEK-293T, Table 1, HEK293T TOPFlash, 25 mM LiCl after 6 h"}},
  "data": [
    {"smiles": "CCCC(=O)NC(c1ccco1)c1cc(Cl)c2cccnc2c1O", "note": "(centres unmarked) [48M1]", "values": [
      {"measurement": "inhibition", "setting": "[1]; [7]", "result": 82, "unit": "%"}
    ]},
    {"smiles": "CCCC(=O)NC(c1ccc(N(C)C)cc1)c1cc(Cl)c2cccnc2c1O", "note": "(centres unmarked) [58F8]", "values": [
      {"measurement": "inhibition", "setting": "[1]; [7]", "result": 88, "unit": "%"}
    ]},
    {"smiles": "O=C(O)CCNc1cc(N2CCc3ccccc3CC2)nc(-c2ccccn2)n1", "note": "[GSK-J1, reference compound]", "values": [
      {"measurement": "% Inhibition", "setting": "[2]", "result": 100, "unit": "%"},
      {"measurement": "% Inhibition", "setting": "[3]", "result": 100, "unit": "%"}
    ]},
    {"smiles": "O=[N+]([O-])c1ccc(O)c2ncccc12", "note": "[nitroxoline]", "values": [
      {"measurement": "enzymatic activity of KDM3A", "setting": "[4]", "result": "inhibited"},
      {"measurement": "enzymatic activity of KDM3B", "setting": "[5]", "result": "inhibited"},
      {"measurement": "tumor growth", "setting": "[6]", "result": "inhibited tumor growth"}
    ]},
    {"smiles": "CC(C)C(=O)NC(c1ccco1)c1ccc2cccnc2c1O", "note": "(centres unmarked) [SD70, reference compound]", "values": [
      {"measurement": "Percent inhibition at 1 μM", "setting": "[1]; 1 µM", "result": 53.8, "unit": "%"},
      {"measurement": "Percent inhibition at 1 μM", "setting": "[1]; listed as VMS-7-175, 1 µM", "result": 49.7, "unit": "%"}
    ]},
    {"smiles": "CCCC(=O)NC(c1ccc(N2CCC(C(=O)OCC)CC2)cc1)c1cc(Cl)c2cccnc2c1O", "note": "(centres unmarked) [VMS-7-183]", "values": [
      {"measurement": "Percent inhibition at 1 μM", "setting": "[1]", "result": 85.6, "unit": "%"}
    ]},
    {"smiles": "CCC(=O)NC(c1ccco1)c1cc(Cl)c2cccnc2c1O", "note": "(centres unmarked) [58B6]", "values": [
      {"measurement": "inhibition", "setting": "[1]; [7]", "result": 73, "unit": "%"}
    ]},
    {"smiles": "CC(=O)NC(c1ccc(N(C)C)cc1)c1cc(Cl)c2cccnc2c1O", "note": "(centres unmarked) [58D8]", "values": [
      {"measurement": "inhibition", "setting": "[1]; [7]", "result": 90, "unit": "%"}
    ]},
    {"smiles": "Oc1c(I)cc(Cl)c2cccnc12", "note": "[clioquinol]", "values": [
      {"measurement": "enzymatic activity of KDM3A", "setting": "[4]", "result": "inhibited"},
      {"measurement": "enzymatic activity of KDM3B", "setting": "[5]", "result": "inhibited"},
      {"measurement": "tumor growth", "setting": "[6]", "result": "inhibited tumor growth"}
    ]},
    {"smiles": "Clc1ccc(N/N=C(\\c2ccccc2)c2ccccn2)nc1", "note": "[JIB-04]", "values": [
      {"measurement": "% Inhibition", "setting": "[4]; Reference inhibitor", "result": 100, "unit": "%"}
    ]},
    {"smiles": "CC(=O)NC(c1ccc(Cl)cc1)c1cc([N+](=O)[O-])c2cccnc2c1O", "note": "(centres unmarked) [58H8]", "values": [
      {"measurement": "inhibition at 2.5 µM", "setting": "[1]; Homo sapiens, HEK-293T, Table 1, HEK293T TOPFlash, 2.5 µM of each compound, 25 mM LiCl after 6 h", "result": 80, "unit": "%"}
    ]}
  ]
}
